From patent US20160095929A1, “PROMOTION OF WOUND HEALING” (Northwestern University, priority 2011, published 2016)
Entries after “also recorded” stand apart in the source; their conditions may differ.

Tests used:
[1] = system: GM3; assay: GM3 expression in HEKs (flow cytometry / immunofluorescence with anti-GM3 antibody); format: cell-based, human; settings: for GM3 expression (in words): GCS inhibitor, M154 medium and glucose-supplemented medium
Protocol: A. HEKs were treated for 96 h with 0-100 pM TNF-α in complete […] medium and GM3S expression determined by qPCR. B. GM3 was quantified by flow cytometry with anti-GM3 antibody after 0-100 pM TNF-α for 96 h. C, D. HEKs were treated with 12 mM supplemental glucose (C) or in […] medium alone (D) for 72 h and GM3 was detected with anti-GM3 antibody by immunofluorescence. […] Changes in GM3 expression by immunofluorescence with anti-GM3 antibody show efficacy of siRNA- and DNA-Au NPs with 60-72 h incubation. […] C. […] A, B=routine immunofluorescence; C, D and inset of D=confocal microscopy. Bar=14 μm.

[2] = system: ceramides; assay: Ceramide detection with anti-C2 Cer antibody (TLC immunostaining, ELISA) in HEKs; format: cell-based, human; settings: TLC immunostaining and ELISA
[3] = system: HEKs; assay: HEK proliferation (WST assay); format: cell-based, human; settings: with or without 12 mM glucose, up to 5 days
Protocol: (§1) A. KO and WT mouse KCs, grown in CNT07 medium, were treated with and without 12 mM glucose (Glu) for 72 h, and then plated into 96-well plates. Proliferation was measured by WST assay (Clontech) in the continued presence or absence of Glu. B. Mouse KCs were treated as above, then plated at confluence into Col I-coated 24-well plates in the presence of mitomycin C. Two hours after plating, a scratch was made and migration monitored. Migration was decreased by Glu, but was faster in the KO cells treated with Glu than with vehicle. […] A. HEKs were treated as described in FIG. 7 for mouse KCs and proliferation was measured. […] B. HEKs were treated and scratch assays performed as in FIG. 7. […] C. HEKs were treated with Glu and/or C9, but starved during the last 18 h. Cells were plated on the top of Col I-coated Boyden inserts in supplement-free medium, while the lower level was filled with the same medium with and without insulin (5 μg/ml) or IGF-1 (100 ng/ml) (Haase et al. J Cell Sci 2003; 116:3227-38.; herein incorporated by reference in its entirety). After 18 h, HEKs on the bottom surface were stained and counted. […] D-G. After their incubation in Glu and/or C9, HEKs were plated onto Col I-coated glass dishes and, 2 h later, single cells were imaged every 2 mins over a 2 h period using a Biostation phase contrast microscope (Nikon). […]

[4] = system: HEKs; assay: HEK scratch migration assay; format: cell-based, human; settings: mitomycin C, with or without glucose
Protocol: as §1

[5] = system: HEKs; assay: HEK chemotaxis, Col I-coated Boyden inserts; format: cell-based, human; settings: supplemental Glu, 18 h, with or without insulin 5 μg/ml or IGF-1 100 ng/ml
Protocol: (§2) A. HEKs were treated as described in FIG. 7 for mouse KCs and proliferation was measured. […] B. HEKs were treated and scratch assays performed as in FIG. 7. […] C. HEKs were treated with Glu and/or C9, but starved during the last 18 h. Cells were plated on the top of Col I-coated Boyden inserts in supplement-free medium, while the lower level was filled with the same medium with and without insulin (5 μg/ml) or IGF-1 (100 ng/ml) (Haase et al. J Cell Sci 2003; 116:3227-38.; herein incorporated by reference in its entirety). After 18 h, HEKs on the bottom surface were stained and counted. […] D-G. After their incubation in Glu and/or C9, HEKs were plated onto Col I-coated glass dishes and, 2 h later, single cells were imaged every 2 mins over a 2 h period using a Biostation phase contrast microscope (Nikon). […] Vector maps constructed with 10 representative tracks (G) further show reversal of the impact of Glu with C9 alone (which was approximately the same as with growth factors).

[6] = system: HEKs; assay: HEK single live cell imaging (Biostation); format: cell-based, human; settings: Glu-treated HEKs
Protocol: as §2

[7] = system: p-cofilin; assay: p-cofilin immunoblotting in HEKs; format: cell-based, human; settings: HEKs treated 72 h, immunoblot
Protocol: HEKs were treated for 72 h with or without Glu, C9, Glu+C9 (A), or with sense DNA-Au NPs or the hybrid GM2/GD2S and GD3S antisense-Au NPs (B). Immunoblotting of cell lysates detected p-cofilin8 ([…]), cofilin and, as a loading control, GAPDH.

[8] = system: IGF-1R; assay: IGF-1R phosphorylation immunoblot in HEKs; format: cell-based, human; settings: HEKs 72 h, with or without Glu; IGF-1 100 ng/ml or insulin 5 μg/ml
[9] = biological target: T1, GCS (Homo sapiens, UniProt Q16739); settings: cited from earlier work
T1 sequence (Q16739 1-394): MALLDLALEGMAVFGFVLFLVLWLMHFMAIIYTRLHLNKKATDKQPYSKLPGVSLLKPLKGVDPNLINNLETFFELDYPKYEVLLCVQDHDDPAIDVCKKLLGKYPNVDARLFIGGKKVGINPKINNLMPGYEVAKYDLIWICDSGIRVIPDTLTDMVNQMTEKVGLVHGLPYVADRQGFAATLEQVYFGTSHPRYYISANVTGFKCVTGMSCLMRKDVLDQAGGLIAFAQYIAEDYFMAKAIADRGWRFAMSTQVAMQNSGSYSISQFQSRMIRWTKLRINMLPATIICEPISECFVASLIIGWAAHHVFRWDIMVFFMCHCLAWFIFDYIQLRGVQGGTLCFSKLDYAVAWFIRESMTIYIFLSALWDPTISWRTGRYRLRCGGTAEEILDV

[10] = in animals, relative to P4; cited from earlier work
[11] = system: IR; assay: IR phosphorylation / signaling immunoblot in HEKs; format: cell-based, human; settings: HEKs 72-96 h; 100 pM EtDOP4, 100 pM TNF-α, GM3 50 μM; insulin 5 μg/ml
Protocol: Cells were starved of growth factors overnight (with treatment continued), then treated for 5-60 mins (15 mins shown) with or without insulin 5 μg/ml. Cells lysates were immunoprecipitated with anti-IR polyclonal antibody and blotted with monoclonal anti-IR, PY-20, or as a loading control, actin. Membrane lysates were immunoprecipitated with IR and immunoblotted with anti-IR (top), PY-20 (second row), anti-IRS-1 (3rd row in B), or to control for loading, actin (bottom). […] Expression of IR was not affected.

[12] = system: globotriaosylceramide; settings: patients with Fabry disease; cited from earlier work
[13] = system: α5 integrin; settings: on fibronectin (FN); cited from earlier work
[14] = phase II trials for Gaucher disease; cited from earlier work
[15] = system: mouse KCs; assay: Mouse KC in vitro wound (scratch) migration assay; format: cell-based; settings: WT primary mouse KCs
Protocol: (§3) FIGS. 13A-C show ganglioside depletion reverses glucose-induced inhibition of proliferation and in vitro wound healing. (A) Mouse KCs were cultured in standard medium (8 mM glucose) or medium supplemented with 12 mM glucose treated for 72 h, and then plated at confluence onto collagen I-coated 24-well plates in the presence of mitomycin C to prevent proliferation. Two hours after plating, a scratch was made and migration was monitored photographically during the subsequent 60 h in the continued presence or absence of glucose. (B) Quantification of wound healing shown in (A) by computerized measurements of the unfilled gap. (C) Proliferation of mouse KCs was measured by WST assay in standard or glucose-supplemented medium. In vitro proliferation, migration and motility assays. […] For proliferation assays, KCs were plated onto 96-well (2×10^3 cell/well) or 12-well (2×10^4 cell/well) plates and cell proliferation was assessed daily for 5 d by either WST assay (96-well plate) per manufacturer's instruction (Clontech, Calif.) and manual counting using a hemacytometer (12-well plate). Cell migration was assessed by in vitro wound (scratch) assays as previously described (47). […] Cell migration in complete CnT-07 medium in the presence of 4 μg/mL mitomycin was recorded photographically every 3-4 h for 60 h under an inverted phase-contrast microscope (Nikon). […]

[16] = system: mouse KCs; assay: Mouse KC proliferation (WST assay); format: cell-based; settings: WT primary mouse KCs
Protocol: as §3

## CCCCCCCCC(=O)N[C@H](CN1CCCC1)[C@H](O)c1ccc2c(c1)OCCO2.O=C(O)C(O)C(O)C(=O)O [C9]
[1]; 1 μM C9 for 72 h, flow cytometry
  reduction in GM3 expression: 93%
[1]
  GM3 expression (in words): prevents GM3 expression; also recorded: deplete GM3
[2]
  ceramide level (in words): does not increase ceramides; also recorded: neither C9 nor EtDOP4 increase ceramide
[3]
  proliferation (in words): greatest in cells treated with Glu and C9; also recorded: increases
[4]
  migration (in words): even faster in the HEKs treated with C9+Glu than in vehicle-treated HEKs; also recorded: increases
[5]
  chemotaxis (in words): increased chemotaxis of HEKs exposed to supplemental Glu
[6]; at 2 h
  net displacement (reflecting persistence): significantly increased
  total distance (reflecting velocity): significantly increased
[6]; imaged over 2 h
  cell polarity (in words): increased cell polarity
[7]
  phosphorylation of cofilin (in words): decrease p-cofilin
[8]
  IGF-1R phosphorylation (in words): phosphorylates IGF-1R, including in the presence of supplemental glucose; also recorded: reverses the glucose-induced suppression of IGF-1R activation
[9]
  potency at inhibiting GCS relative to P4: somewhat less potent
[10]
  metabolic and tolerability profile: better metabolic and tolerability profile

## CCCCCCCCCCCCCCCC(=O)N[C@H](CN1CCCC1)[C@H](O)c1ccc2c(c1)OCCO2 [EtDOP4, D-threo-EtDO-P4]
[1]
  GM3 expression (in words): deplete GM3
[2]
  ceramide level (in words): neither C9 nor EtDOP4 increase ceramide
[3]
  proliferation (in words): increases
[4]
  migration (in words): increases
[11]
  IR signaling / IR phosphorylation (in words): rescues the suppression of TNF-α of IR phosphorylation
[12]
  accumulation of globotriaosylceramide: decrease the accumulation of globotriaosylceramide

## GT1b
[13]
  KC migration: inhibit KC migration specifically on fibronectin (FN)

## IGF-1: insulin-like growth factor 1
[7]
  phosphorylation of cofilin (in words): decrease p-cofilin

## TNF-α
[1]; 0-100 pM TNF-α for 96 h, flow cytometry
  increase in membrane-based GM3 expression: 10 fold
[11]
  IR signaling / IR phosphorylation (in words): suppresses IR signaling

## eliglustat tartrate
[14]
  toxicity: showed little toxicity

## insulin: growth factor, 5 μg/ml
[7]
  phosphorylation of cofilin (in words): decrease p-cofilin

## lactosylceramide [LacCer]
[15]
  migration (in words): slightly decreased
[16]
  proliferation (in words): slightly decreased
